Laboratory results as given in ChEMBL document CHEMBL5537162, “Development of Antibacterial Peptides with Membrane Disruption and Folate Pathway Inhibitory Activities against Methicillin-Resistant Staphylococcus aureus” (J Med Chem, 2024).
Active and inactive are the calls of the source. The calls are words filed in the database; no cut-off is given here.

Tests used:
Staphylococcus aureus [1] = assay: Antibacterial activity against methicillin-resistant Staphylococcus aureus assessed as bacterial growth inhibition incubated for 24 hrs by CLSI based micro-broth dilution assay; assay type: functional
[2] = (§1) Hemolytic activity in mouse RBC assessed as hemolysis incubated for 1 hrs by spectrophotometric analysis; assay type: toxicity, cell-based, Erythrocyte; conditions: mouse red blood cells (erythrocytes)
Erythrocyte = assay: as §1; assay type: toxicity, cell-based; conditions: erythrocyte, 1 h
[3] = Selectivity index, ratio of IC50 for antiproliferative activity against HEK293T cells assessed as reduction in cell viability to MIC for antibacterial activity against methicillin-resistant Staphylococcus aureus assessed as bacterial growth inhibition; assay type: toxicity, cell-based; conditions: human, read-out: Selectivity Index
Staphylococcus aureus [4] = assay: Antibacterial activity against methicillin-resistant Staphylococcus aureus 18908 assessed as bacterial growth inhibition incubated for 24 hrs by CLSI based micro-broth dilution assay; assay type: functional
Staphylococcus aureus [5] = assay: Antibacterial activity against methicillin-resistant Staphylococcus aureus 18466 assessed as bacterial growth inhibition incubated for 24 hrs by CLSI based micro-broth dilution assay; assay type: functional
Staphylococcus aureus [6] = assay: Antibacterial activity against methicillin-resistant Staphylococcus aureus 18475 assessed as bacterial growth inhibition incubated for 24 hrs by CLSI based micro-broth dilution assay; assay type: functional
Staphylococcus aureus [7] = assay: Antibacterial activity against methicillin-resistant Staphylococcus aureus 18567 assessed as bacterial growth inhibition incubated for 24 hrs by CLSI based micro-broth dilution assay; assay type: functional
Staphylococcus aureus [8] = assay: Antibacterial activity against methicillin-resistant Staphylococcus aureus 18858 assessed as bacterial growth inhibition incubated for 24 hrs by CLSI based micro-broth dilution assay; assay type: functional
Staphylococcus aureus [9] = assay: Antibacterial activity against methicillin-resistant Staphylococcus aureus 18878 assessed as bacterial growth inhibition incubated for 24 hrs by CLSI based micro-broth dilution assay; assay type: functional
Staphylococcus aureus [10] = assay: Antibacterial activity against methicillin-resistant Staphylococcus aureus 19047 assessed as bacterial growth inhibition incubated for 24 hrs by CLSI based micro-broth dilution assay; assay type: functional
Staphylococcus aureus [11] = assay: Antibacterial activity against methicillin-resistant Staphylococcus aureus 19167 assessed as bacterial growth inhibition incubated for 24 hrs by CLSI based micro-broth dilution assay; assay type: functional
Staphylococcus aureus [12] = assay: Antibacterial activity against Staphylococcus aureus 25923 assessed as bacterial growth inhibition incubated for 24 hrs by CLSI based micro-broth dilution assay; assay type: functional
Staphylococcus aureus [13] = assay: Antibacterial activity against Staphylococcus aureus 29213 assessed as bacterial growth inhibition incubated for 24 hrs by CLSI based micro-broth dilution assay; assay type: functional
Staphylococcus aureus [14] = assay: Antibacterial activity against Staphylococcus aureus 6538 assessed as bacterial growth inhibition incubated for 24 hrs by CLSI based micro-broth dilution assay; assay type: functional
Staphylococcus aureus [15] = assay: Antibacterial activity against Staphylococcus aureus 8325.4 assessed as bacterial growth inhibition incubated for 24 hrs by CLSI based micro-broth dilution assay; assay type: functional
Porphyromonas gingivalis = assay: Antibacterial activity against Porphyromonas gingivalis assessed as bacterial growth inhibition incubated for 24 hrs by CLSI based micro-broth dilution assay; assay type: functional
Escherichia coli = assay: Antibacterial activity against Escherichia coli assessed as bacterial growth inhibition incubated for 24 hrs by CLSI based micro-broth dilution assay; assay type: functional
Candida albicans = assay: Antifungal activity against Candida albicans assessed as inhibition of fungal growth; assay type: functional
Staphylococcus aureus [16] = assay: Drug resistance, ratio of MIC for methicillin-resistant Staphylococcus aureus after 1 week exposure to MIC for methicillin-resistant Staphylococcus aureus during first exposure; assay type: functional; conditions: time 1 weeks
[17] = Stability in methicillin-resistant Staphylococcus aureus supernatants measured for 12 hrs by RP-HPLC analysis; assay type: physicochemical; conditions: read-out: Stability
[18] = Stability in mouse blood plasma measured for 12 hrs by RP-HPLC analysis; assay type: ADME, cell-free; conditions: read-out: Stability
Staphylococcus aureus [19] = assay: Antibacterial activity against methicillin-resistant Staphylococcus aureus assessed as fold reduction in viable bacteria at 1 to 8 times MIC measured at 3 hr by time-kill assay; assay type: functional
Staphylococcus aureus [20] = assay: Antibacterial activity against methicillin-resistant Staphylococcus aureus assessed as reduction in viable bacteria at 1 to 8 times MIC measured at 1 hr by time-kill assay; assay type: functional, organism-based
Cell membrane = assay: Disruption of membrane integrity in methicillin-resistant Staphylococcus aureus assessed as increase in fluorescence intensity measured for 120 mins by confocal microscopic analysis; assay type: cell membranes
[21] = target: T1, Monofunctional C1-tetrahydrofolate synthase, mitochondrial (Homo sapiens) (UniProt Q6UB35); assay: Inhibition of FTHFS (unknown origin) expressed in Escherichia coli BL21 (DE3) incubated for 10 mins by UV-spectrophotometer analysis
T1 sequence (whole entry): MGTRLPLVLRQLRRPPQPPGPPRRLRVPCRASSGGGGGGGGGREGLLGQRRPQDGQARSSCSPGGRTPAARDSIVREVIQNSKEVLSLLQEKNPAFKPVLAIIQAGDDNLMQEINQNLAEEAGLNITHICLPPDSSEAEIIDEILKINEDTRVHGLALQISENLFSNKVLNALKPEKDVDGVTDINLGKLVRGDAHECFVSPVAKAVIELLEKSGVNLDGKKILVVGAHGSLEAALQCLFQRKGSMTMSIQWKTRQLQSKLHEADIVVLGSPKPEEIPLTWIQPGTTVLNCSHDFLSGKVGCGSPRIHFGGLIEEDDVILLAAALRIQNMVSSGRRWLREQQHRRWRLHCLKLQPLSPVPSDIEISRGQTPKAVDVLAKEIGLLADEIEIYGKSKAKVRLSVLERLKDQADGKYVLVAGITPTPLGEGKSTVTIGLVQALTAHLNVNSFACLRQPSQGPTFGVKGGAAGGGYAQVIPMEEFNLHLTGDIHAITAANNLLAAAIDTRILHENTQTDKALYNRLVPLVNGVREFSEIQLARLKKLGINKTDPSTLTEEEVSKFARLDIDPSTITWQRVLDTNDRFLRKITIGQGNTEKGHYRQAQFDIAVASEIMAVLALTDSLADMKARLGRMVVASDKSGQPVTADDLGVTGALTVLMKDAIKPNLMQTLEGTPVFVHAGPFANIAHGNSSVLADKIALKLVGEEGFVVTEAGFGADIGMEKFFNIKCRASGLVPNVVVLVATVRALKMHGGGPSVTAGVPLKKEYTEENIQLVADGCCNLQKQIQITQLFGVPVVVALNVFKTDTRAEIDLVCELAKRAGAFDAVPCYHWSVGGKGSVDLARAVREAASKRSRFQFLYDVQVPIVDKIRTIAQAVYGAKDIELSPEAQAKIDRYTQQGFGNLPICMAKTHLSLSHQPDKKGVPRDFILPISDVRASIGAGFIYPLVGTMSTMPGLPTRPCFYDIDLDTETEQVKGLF

Staphylococcus aureus [22] = assay: Antibacterial activity against Methicillin-resistant Staphylococcus aureus infected in ICR mouse skin infection model assessed as reduction in skin abscess volume at 40 mg/kg, sc measured upto 10 days; assay type: functional, organism-based; conditions: time <= 10.0 day
Staphylococcus aureus [23] = assay: Antibacterial activity against Methicillin-resistant Staphylococcus aureus infected in ICR mouse skin infection model assessed as reduction in bacterial content at 40 mg/kg, sc measured upto 10 days; assay type: functional, organism-based; conditions: time <= 10.0 day
Staphylococcus aureus [24] = assay: Antibacterial activity against Methicillin-resistant Staphylococcus aureus infected in ICR mouse skin infection model assessed as log reduction in bacterial count at 40 mg/kg, sc measured upto 10 days; assay type: functional; conditions: time <= 10 day
Staphylococcus aureus [25] = assay: Antibacterial activity against Methicillin-resistant Staphylococcus aureus infected in ICR mouse skin infection model assessed as reduction in inflammatory infiltration at 40 mg/kg, sc by H and E staining based microscopic analysis; assay type: functional, organism-based

Substance	MIC (Staphylococcus aureus [1])	HC50 at 1 h [2]	HC10 (Erythrocyte)	selectivity ratio [3]	MIC (Staphylococcus aureus [4])	MIC (Staphylococcus aureus [5])	MIC (Staphylococcus aureus [6])	MIC (Staphylococcus aureus [7])	MIC (Staphylococcus aureus [8])	MIC (Staphylococcus aureus [9])	MIC (Staphylococcus aureus [10])	MIC (Staphylococcus aureus [11])	MIC (Staphylococcus aureus [12])	MIC (Staphylococcus aureus [13])	MIC (Staphylococcus aureus [14])	MIC (Staphylococcus aureus [15])	MIC (Porphyromonas gingivalis)	MIC (Escherichia coli)	MIC (Candida albicans)	Ratio (Staphylococcus aureus [16])	other results
H-LARVARRVIRFIRRAW-NH2	3 µM	> 320 µM	> 320 µM	107	3 µM	6 µM	6 µM	3 µM	3 µM	6 µM	3 µM	6 µM	3 µM	3 µM	3 µM	3 µM	12 µM	> 48 µM	3 µM	4	remaining at 12 h [17]: 50%; remaining at 12 h [18]: 20%; fold change (FC) (Staphylococcus aureus [19]): ~300; Activity (Staphylococcus aureus [20]): Active; Activity (Cell membrane): Active; inhibition [21]: Active; Activity (Staphylococcus aureus [22]): Active; Activity (Staphylococcus aureus [23]): Active; log(activity) (Staphylococcus aureus [24]): 5.9; Activity (Staphylococcus aureus [25]): Active
H-RRRLARRLIFFIRRAW-NH2	3 µM	> 320 µM	> 320 µM	107	3 µM	6 µM	6 µM	6 µM	3 µM	6 µM	6 µM	6 µM	3 µM	3 µM	3 µM	3 µM	12 µM	> 48 µM	3 µM	8	remaining at 12 h [17]: 25%; remaining at 12 h [18]: 20%; fold change (FC) (Staphylococcus aureus [19]): ~300; Activity (Staphylococcus aureus [20]): Active; Activity (Cell membrane): Active; inhibition [21]: Active; Activity (Staphylococcus aureus [22]): Active; Activity (Staphylococcus aureus [23]): Active; log(activity) (Staphylococcus aureus [24]): 5.8; Activity (Staphylococcus aureus [25]): Active
